Measurements as given in patent US20110039799A1, “A1 ADENOSINE RECEPTOR AGONIST POLYMORPHS” (Gilead Palo Alto, Inc., priority 2009, published 2011).
Entries after “also recorded” stand apart in the source; their conditions may differ.

How the values were obtained:
[1] = Solid-state stability by DSC thermogram (storage, wet granulation, direct compression, grinding); assay type: physicochemical; settings: for stability when stored, in comparison to compound formed from Example 1: storage, ambient temperature and 75% relative humidity (Form III 5 months, Form IV 3 months)
Procedure: Differential scanning calorimetry (DSC) was performed using a TA Instruments differential scanning calorimeter either Q1000 or Q2000. The sample was placed into an aluminum DSC pan, and the weight accurately recorded. The pan was covered with a lid (sometimes the lid was perforated with a (laser) pinhole to allow for pressure release), and then either crimped or hermetically sealed. The sample cell was equilibrated at either 25° C. (Q2000) or 40° C. (Q1000) and heated under a nitrogen purge at a rate of 10° C./min, up to a final temperature of either 180 (Q1000)° C. or 250° C. (Q2000). Indium metal was used as the calibration standard.

[2] = Water vapor sorption (dynamic vapor adsorption), hygroscopicity; assay type: physicochemical; settings: adsorption/desorption 5% to 95% relative humidity
Procedure: Water vapor sorption data were collected on a VTI SGA-100 Vapor Sorption Analyzer. Adsorption and desorption data were collected over a range of 5% to 95% relative humidity (RH) at 10% RH intervals under a nitrogen purge. The samples were not dried prior to analyses. Equilibrium criteria used for the analyses were less than 0.0100% weight change in 5 minutes, with a maximum equilibration time of 3 hours if the weight criterion was not met. Data were not corrected for the initial moisture content of the samples. NaCl and PVP were used as calibration standards.

[3] = in vivo, US 2007/018505 Example 32; cited from earlier work
[4] = cited from earlier work

| solid-state stability by DSC thermogram when subjected to direct compression and grinding [1] | solid-state stability by DSC thermogram when subjected to wet granulation [1] | stability when stored, in comparison to compound formed from Example 1 [1] | Structure (SMILES) | hygroscopicity by dynamic vapor adsorption [2] | further results |
| --- | --- | --- | --- | --- | --- |
| DSC thermogram change and instability | DSC thermogram change and instability |  | O[C@@H]1[C@H](O)[C@@H](CSc2ccccc2F)O[C@H]1n1cnc2c(N[C@@H]3CCC[C@H]3O)ncnc21 [Example 1, 2-{6-[((1R,2R)-2-hydroxycyclopentyl)amino]purin-9-yl}(4S,5S,2R,3R)-5-[(2-fluorophenylthio)methyl]oxolane-3,4-diol] | high hygroscopicity | DSC thermogram upon storage ([1]; storage at 40° C. and 75% relative humidity for 2 months): DSC thermogram change |
| not affected | not affected | enhanced stability | O[C@@H]1[C@H](O)[C@@H](CSc2ccccc2F)O[C@H]1n1cnc2c(N[C@@H]3CCC[C@H]3O)ncnc21 [Form III, 2-{6-[((1R,2R)-2-hydroxycyclopentyl)amino]purin-9-yl}(4S,5S,2R,3R)-5-[(2-fluorophenylthio)methyl]oxolane-3,4-diol] | non-hygroscopic; also recorded: not hygroscopic | stability to moisture, mechanical stress, pharmaceutical processing, and temperature changes, relative to other crystalline forms ([1]; general statement): superior |
|  |  | enhanced stability | O[C@@H]1[C@H](O)[C@@H](CSc2ccccc2F)O[C@H]1n1cnc2c(N[C@@H]3CCC[C@H]3O)ncnc21 [Form IV, 2-{6-[((1R,2R)-2-hydroxycyclopentyl)amino]purin-9-yl}(4S,5S,2R,3R)-5-[(2-fluorophenylthio)methyl]oxolane-3,4-diol] | non-hygroscopic; also recorded: not hygroscopic |  |
|  |  |  | O[C@@H]1[C@H](O)[C@@H](CSc2ccccc2F)O[C@H]1n1cnc2c(N[C@@H]3CCC[C@H]3O)ncnc21 [GS-9667, 2-{6-[((1R,2R)-2-hydroxycyclopentyl)amino]purin-9-yl}(4S,5S,2R,3R)-5-[(2-fluorophenylthio)methyl]oxolane-3,4-diol] |  | circulating free fatty acides (FFA) [3]: lowering; insulin sensitivity [3]: improving; serum triglyceride (TG) levels [3]: lowering |
|  |  |  | Nc1ncnc2c1ncn2[C@@H]1O[C@H](CO)[C@@H](O)[C@H]1O [adenosine, Adenosine] |  | half-life [4]: less than 10 seconds |
